These are literature values, as cited in patent US20220304959A1, “TREATMENT OF LONG HAULERS SYNDROME WITH NICLOSAMIDE” (First Wave BioPharma, priority 2021, published 2022).

SMILES strings stand for the structures.

Turning to `O=C(Nc1ccc([N+](=O)[O-])cc1Cl)c1cc(Cl)ccc1O` [niclosamide, 5-chloro-N-(2-chloro-4-nitrophenyl)-2-hydroxybenzamide], under “administered to millions of people, including children”, the Overall safety profile result is reported as “very good safety profile”. Moreover, where the note is “human use, literature reports”, the “Less frequently reported AEs: rash, oral irritation, fever, rectal bleeding, weakness, bad taste in mouth, sweating, palpitation, constipation, alopecia, oedema of an arm, backache, irritability” value is recorded as less than 1%; the “Other reported AEs: vomiting; abdominal discomfort possibly associated with anorexia, diarrhea, drowsiness, dizziness and headache” value is recorded as 1-4 % of patients.
